From PMC9982591, “Inflammation‐Controlled Anti‐Inflammatory Hydrogels” (Advanced Science, 2022)

Key:
calcineurin = calcineurin (Homo sapiens, UniProt P62937+P63098+Q08209)
extracellular CypA = details: cited from earlier work
cyclophilin A (CypA) = cyclophilin A (CypA) (Homo sapiens, UniProt P62937); assay: PPIase inhibition; assay type: biochemical; details: PPIase assay, Table S2
Protocol: From the activity against the inhibitor concentrations, the IC50 and the K i value were determined with nonlinear curve fitting according to the models of Morrison^[ [41] ^] and Murphy.^[ [42] ^]

[1] = target: T1, human neutrophil elastase (Homo sapiens, UniProt P08246); assay: Enzymatic cleavage of elastase-responsive peptide and PEG-AAPV conjugate; assay type: biochemical; details: 7 mmol/L AAPV peptide, 20 nmol/L human neutrophil elastase, PBS pH 7.4, 37 °C, analytical HPLC
T1 construct: purchased Merck/Calbiochem
T1 sequence (P08246 30-267): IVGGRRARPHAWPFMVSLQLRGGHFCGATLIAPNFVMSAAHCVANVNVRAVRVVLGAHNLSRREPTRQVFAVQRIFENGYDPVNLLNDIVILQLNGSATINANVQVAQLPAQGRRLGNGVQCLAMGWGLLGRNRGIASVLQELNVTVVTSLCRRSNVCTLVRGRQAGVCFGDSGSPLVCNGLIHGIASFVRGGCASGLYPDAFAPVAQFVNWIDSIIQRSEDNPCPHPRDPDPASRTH
Protocol: starPEG-peptide conjugate with full starPEG arm saturation by the leukocyte elastas e responsive AAPV peptide was added to the reaction solution in 4-fold excess, to finally result […]
The reaction mixture was directly used for hydrogel format ion.
S1.3. Supplement –Basic analysis
Enzymatic clea vage of el astase- responsive peptide and PEG-AAPV conjug ate To analyze leuko cyte elastase mediated hydrolysis of the responsive peptide and the corresponding conjugate, 7 mmol L -1 AAPV peptide or 0.7 mmol L -1 starPEG-AAPV conjugate w er e incub ated with 20 nmol L -1 human neutrophil el astase in PBS, pH 7.4 at 37°C.
The enzymatic reaction was evaluated after indicated timepoints by analytical HPLC, followed by integral anal ysis of the peak signals for educt and cleavage products.
Inhibition of leukocyte el astaseby heparin
To evaluate the influence of the hydrogel component heparin on the activity of leukocyte elastase, samples with heparin sodium salt concentrations of 0.001- 1 000µg mL -1 were prepared in 50mmol L -1 Tris-HCl pH 7.4 supplemented with 100mmol L -1 NaCl and 0.1% BSA and pre-incubated with 10nmol L -1 leukocyte elastase for 5 min. […]

complement system = assay: Complement activation in whole blood with zymosan (C5a ELISA); assay type: cell-based, human; details: zymosan 10 µg/mL, 30 min, 37 °C, 4W9A alone and conjugated to cleavage fragment (Figure S4, 10 µmol/L, n = 3)
Protocol: Figure 3 Cleavage of inflammation‐responsive hydrogels in an in vitro inflammation model and assessment of the anti‐inflammatory effects of the released drugs. A) For hydrogel cleavage, isolated polymorphonuclear granulocytes (PMN) are activated with complement‐opsonized zymosan (OPZ) in cell culture media and incubated with the hydrogel over 2 h at 37 °C. The cell‐free supernatant containing the released bioactive is used to test the anti‐inflammatory effect in the corresponding system. B) 4W9A: Measurement of complement activation in whole blood activated with zymosan. C) PMX53: Activation of isolated PMN by zymosan activated serum, measured as CD11b expression (*P < 0.05, **P < 0.01 in t‐test).
The amount of Atto488 released from the hydrogel as a model drug was determined by fluorescence measurement at λ ex. = 485 nm/λ em. = 535 nm against an Atto488 standard. […] Cell activation was determined by flow cytometry using CD11b‐VioBlue staining (Biolegend) for isolated granulocytes and additionally CD14‐APC and CD41a‐FITC (both BD Biosciences, New Jersey, USA) for whole blood samples. Leukocyte elastase and C5a concentrations were determined using the commercial ELISA kits Hycult human elastase ELISA (Hycult Biotech, Uden, Netherlands) and C5a micro ELISA (DRG, Marburg, Germany) according to the manufactures instructions.

[2] = target: C5a receptor (C5aR1 or CD88); details: C5a receptor inhibitor; read-out: IC50 of PMX53; cited from earlier work
Text: PMX53 is derived from the C‐terminus of the C5a fragment. Therefore, N‐terminal sequence extension by a glycine spacer and a cysteine group appeared possible without loss of activity.^[ [19], [30] ^] (Table S1, Supporting Information). The obtained peptide was linked to the elastase‐responsive hydrogel platform as an anti‐inflammatory feedback control system. The low IC50 concentration (IC50 = 20 nmol L^−1[ [19] ^]) allowed for a low functionalization degree at the hydrogel of only 2% of the starPEG‐AAPV‐arms.

leukocyte = tested on: leukocyte; parameters: method as in PMID 10354404; details: specific for C5aR1; cited from earlier work
human leukocyte elastase = assay: Inhibition of leukocyte elastase by heparin; assay type: biochemical; details: U-shaped, heparin 0.01–5 µg/mL (≈0.002–1 U/mL); 10 nmol/L elastase, 250 µmol/L MeOSuc-Ala-Ala-Pro-Val-pNA, Tris-HCl pH 7.4, 100 mmol/L NaCl, 0.1% BSA, 5 min pre-incubation, 37 °C, 30 min, 405 nm; normalized to control without heparin; mean ± SD of n=2
Protocol: Figure S2: Inhibition of leukocyte elastase by heparin. A concentration of 10 nmol L-1 human leukocyte elastase was used to cleave 250 µmol L -1 chromogenic substrate in the presence of different heparin concentrations. The substrate cleavage was monitored photometrically at a wavelength of 405nm by the release of p- nitroaniline from the chromogenic substrate methoxysuccinyl-Ala-Al a-Pro-V al-pNA over 30 min. Values were normalized to a cont rol sample without heparin; mean ± SD of n=2.
(1 picture or pasted object on this page, not shown here) […]
The enzymatic reaction was evaluated after indicated timepoints by analytical HPLC, followed by integral anal ysis of the peak signals for educt and cleavage products. […]
To evaluate the influence of the hydrogel component heparin on the activity of leukocyte elastase, samples with heparin sodium salt concentrations of 0.001- 1 000µg mL -1 were prepared in 50mmol L -1 Tris-HCl pH 7.4 supplemented with 100mmol L -1 NaCl and 0.1% BSA and pre-incubated with 10nmol L -1 leukocyte elastase for 5 min. Subsequently, the cleavage of 250 µmol L-1 chromogenic substrate MeOSuc-Ala-Ala-Pro-V al-pNA by leukocyte elastase in the presence of the different heparin concentrations was measured as reaction kinetic at 37°C for 30min using the Spark TM 10M multimode microplate reader (Tecan) at 405 nm and c ompared to a cont rol without heparin.

elastase = details: cited from earlier work
Text: (§1) The heparin component of the hydrogel matrix provides favorable additional anti‐inflammatory properties and interacts with the cleaving enzyme in different ways: Elastase has an anion binding site, which mediates binding to the DNA in neutrophil extracellular traps (NETs), to heparin and heparan sulfates, and also leads to accumulation at the hydrogel.^[ [21] ^] […] Additionally, direct inhibition of elastase acti ...

α1‐antitrypsin = details: cited from earlier work
Text: as §1

Chain of calcineurin (P63098 whole entry, other chains not shown): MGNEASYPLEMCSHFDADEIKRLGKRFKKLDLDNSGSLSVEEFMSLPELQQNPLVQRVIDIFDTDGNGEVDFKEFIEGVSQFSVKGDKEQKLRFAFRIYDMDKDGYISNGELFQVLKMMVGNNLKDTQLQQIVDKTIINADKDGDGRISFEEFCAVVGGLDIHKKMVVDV
Chain of calcineurin (P62937 whole entry, other chains not shown): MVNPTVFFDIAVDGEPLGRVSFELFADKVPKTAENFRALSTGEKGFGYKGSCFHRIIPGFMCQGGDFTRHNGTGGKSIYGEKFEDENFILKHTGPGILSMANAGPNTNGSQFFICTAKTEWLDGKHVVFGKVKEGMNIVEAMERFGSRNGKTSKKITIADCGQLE
Chain of cyclophilin A (CypA) (P62937 whole entry): as the sequence (P62937 whole entry, other chains not shown) above

CC[C@@H]1NC(=O)[C@H]([C@H](O)[C@H](C)Cc2nc3cc(C(=O)O)ccc3[nH]2)N(C)C(=O)[C@H](C(C)C)N(C)C(=O)[C@H](CC(C)C)N(C)C(=O)[C@H](CC(C)C)N(C)C(=O)[C@@H](C)NC(=O)[C@H](C)NC(=O)[C@H](CC(C)C)N(C)C(=O)[C@H](C(C)C)NC(=O)[C@H](CC(C)C)N(C)C(=O)CN(C)C1=O [MM284]
calcineurin: concentration up to which no inhibition was found (calcineurin): ≥ 15 µmol/L
extracellular CypA inhibition / immunosuppression (extracellular CypA): inhibits extracellular CypA, providing anti‐inflammatory without immunosuppressive activity

CC[C@@H]1NC(=O)[C@H]([C@H](O)[C@H](C)Cc2nc3cc(C(=O)N[C@H](CCC(=O)O)C(=O)N[C@H](CCC(=O)O)C(=O)N[C@H](CCC(=O)O)C(=O)N[C@H](CCC(=O)O)C(=O)N[C@H](CCC(=O)O)C(=O)N[C@H](CCC(=O)O)C(=O)NCC(=O)N[C@@H](CCCCN)C(=O)NCC(=O)N[C@@H](C)C(=O)N[C@@H](C)C(=O)N4CCC[C@H]4C(=O)N[C@H](C(=O)NCC(=O)NCC(=O)N[C@@H](CS)C(N)=O)C(C)C)ccc3[nH]2)N(C)C(=O)[C@H](C(C)C)N(C)C(=O)[C@H](CC(C)C)N(C)C(=O)[C@H](CC(C)C)N(C)C(=O)[C@@H](C)NC(=O)[C@H](C)NC(=O)[C@H](CC(C)C)N(C)C(=O)[C@H](C(C)C)NC(=O)[C@H](CC(C)C)N(C)C(=O)CN(C)C1=O [MM623]
CypA inhibition compared with MM284 (cyclophilin A (CypA)): comparable to MM284
calcineurin: concentration up to which no inhibition was found (calcineurin): ≥ 20 µmol/L

H2N-GWGAAPV-↑-RGGCG-CONH2
cleavage rate of the free peptide by elastase [1]: 0.36 s⁻¹

Mal-l[CVWQDWGAHRC]-T-CONH2 (disulfide) [4W9A]
inhibitor concentration that should be exceeded for complement inhibition (complement system): > 2 µmol/L

PMX53
IC50 [2]: 20 nM
effect on leukocyte stimulation by cytokines, leukotriene B4, endotoxins, or formylated peptides (leukocyte): has no effect on leukocyte stimulation by cytokines, leukotriene B4, endotoxins, or formylated peptides

heparin
suppression of elastase activity to (residual activity) (human leukocyte elastase): about 50%
elastase activity inhibition by heparin binding (elastase): direct inhibition of elastase activity by heparin binding has been reported
α1-antitrypsin activity (α1‐antitrypsin): decreases the activity of α1‐antitrypsin
